According to ChEMBL document CHEMBL4732077, “Potent and orally active purine-based fetal hemoglobin inducers for treating β-thalassemia and sickle cell disease” (Eur J Med Chem, 2021):
Calls of active or inactive are those of the source. No cut-off for these calls is given here.

How the values were obtained:
[1] = tested on: Erythrocyte; experiment: Induction of gamma-globin gene expression in human erythrocytes at 147 uM after 3 days by RT-PCR analysis; type: functional, cell-based; conditions: time 3.0 day
[2] = tested on: Mus musculus; experiment: Antianemic effect in sickle cell disease mouse B6 model assessed as fetal hemoglobin level at 100 mg/kg, ip once daily, five days a week for 4 weeks (reference value: 0.2 +/- 0.02 %); type: functional
[3] = tested on: Mus musculus; experiment: Antianemic effect in sickle cell disease mouse B6 model assessed as hemoglobin level at 100 mg/kg, ip once daily, five days a week for 4 weeks (reference value: 7.46 +/- 0.7 g/dl); type: functional
[4] = tested on: Erythrocyte; experiment: Induction of beta-globin gene expression in human erythrocytes at 147 uM after 3 days by RT-PCR analysis; type: functional, cell-based; conditions: time 3.0 day
[5] = tested on: Mus musculus; experiment: Antianemic effect in sickle cell disease mouse B6 model assessed as sickle cell level at 100 mg/kg, ip once daily, five days a week for 4 weeks (reference value: 16.78 +/- 1.9 %); type: functional
[6] = Cytotoxicity against human erythrocytes assessed as cell viability after 3 days alamar blue assay; type: cell-based, Erythrocyte; conditions: time 3 day
[7] = tested on: Mus musculus; experiment: Antianemic effect in sickle cell disease mouse B6 model assessed as WBC level at 100 mg/kg, ip once daily, five days a week for 4 weeks (reference value: 34.15 +/- 5.85 K/uL); type: functional
[8] = tested on: Mus musculus; experiment: Antianemic effect in sickle cell disease mouse B6 model assessed as F-cell level at 100 mg/kg, ip once daily, five days a week for 4 weeks (reference value: 1.63 +/- 0.11 %); type: functional
[9] = tested on: Mus musculus; experiment: Antianemic effect in sickle cell disease mouse B6 model assessed as reticulocytes level at 100 mg/kg, ip once daily, five days a week for 4 weeks (reference value: 57.34 +/- 3.67 %); type: functional
[10] = Induction of gamma-globin gene expression in human erythrocytes at 100 uM after 3 days by RT-PCR analysis relative to control; type: functional, Erythrocyte; conditions: time 3 day
[11] = tested on: Mus musculus; experiment: Antianemic effect in sickle cell disease mouse B6 model assessed as neutrophils level at 100 mg/kg, ip once daily, five days a week for 4 weeks (reference value: 13.39 +/- 4.65 K/uL); type: functional
[12] = tested on: Mus musculus; experiment: Antianemic effect in sickle cell disease mouse B6 model assessed as RBC level at 100 mg/kg, ip once daily, five days a week for 4 weeks (reference value: 7.23 +/- 0.75 M/uL); type: functional
[13] = tested on: Erythrocyte; experiment: Induction of gamma-globin gene expression in human erythrocytes at 0.5 uM after 3 days by RT-PCR analysis; type: functional, cell-based; conditions: time 3.0 day
[14] = Induction of NFE2L2 gene expression in human erythrocyte at 0.5 uM after 3 days by RT-PCR analysis relative to control; type: functional; conditions: time 3 day
[15] = Half life in Sprague-Dawley rat at 20 mg/kg, po measured upto 24 hrs by LC-MS/MS analysis; type: ADME, organism-based; conditions: in vivo
[16] = tested on: Erythrocyte; experiment: Cytotoxicity against human erythrocytes assessed as cell viability at 4 uM after 3 days alamar blue assay; type: cell-based; conditions: 72 h, time 3 day
[17] = Induction of gamma-globin gene expression in human erythrocytes at 1 uM after 3 days by RT-PCR analysis relative to control; type: functional, Erythrocyte; conditions: time 3 day
[18] = AUC (0 to infinity) in Sprague-Dawley rat at 20 mg/kg, po measured upto 24 hrs by LC-MS/MS analysis; type: ADME, organism-based; set-up: route oral, dose 20 mg/kg, time <=24; conditions: in vivo
[19] = tested on: Erythrocyte; experiment: Induction of gamma-globin gene expression in human erythrocytes after 3 days by RT-PCR analysis; type: functional, cell-based; conditions: dose 0.06-2 µM, time 3.0 day
[20] = Induction of GATA1 gene expression in human erythrocyte at 1 uM after 3 days by RT-PCR analysis relative to control; type: functional; conditions: time 3 day
[21] = Downregulation of c-MYB gene expression in human erythrocyte at 1 uM after 3 days by RT-PCR analysis relative to control; type: functional; conditions: time 3 day
[22] = tested on: Mus musculus; experiment: Antianemic effect in sickle cell disease mouse B6 model assessed as WBC level at 100 mg/kg, po twice daily, five days a week for 4 weeks (reference value: 34.15 +/- 5.85 K/uL); type: functional
[23] = Cmax in Sprague-Dawley rat at 20 mg/kg, po measured upto 24 hrs by LC-MS/MS analysis; type: ADME, organism-based; set-up: route oral, dose 20 mg/kg, time <=24; conditions: in vivo
[24] = tested on: Mus musculus; experiment: Antianemic effect in sickle cell disease mouse B6 model assessed as RBC level at 100 mg/kg, po twice daily, five days a week for 4 weeks (reference value: 7.23 +/- 0.75 M/uL); type: functional
[25] = tested on: Mus musculus; experiment: Antianemic effect in sickle cell disease mouse B6 model assessed as fetal hemoglobin level at 50 mg/kg, po twice daily, five days a week for 4 weeks (reference value: 0.2 +/- 0.02 %); type: functional
[26] = Induction of CPOX gene expression in human erythrocyte at 0.5 uM after 3 days by RT-PCR analysis relative to control; type: functional; conditions: time 3 day
[27] = Induction of NFE2L2 gene expression in human erythrocyte at 1 uM after 3 days by RT-PCR analysis relative to control; type: functional; conditions: time 3 day
[28] = tested on: Erythrocyte; experiment: Induction of beta-globin gene expression in human erythrocytes at 0.5 uM after 3 days by RT-PCR analysis; type: functional, cell-based; conditions: time 3.0 day
[29] = tested on: Mus musculus; experiment: Antianemic effect in sickle cell disease mouse B6 model assessed as F-cell level at 100 mg/kg, po twice daily, five days a week for 4 weeks (reference value: 1.63 +/- 0.11 %); type: functional
[30] = tested on: Mus musculus; experiment: Antianemic effect in sickle cell disease mouse B6 model assessed as fetal hemoglobin level at 100 mg/kg, po twice daily, five days a week for 4 weeks (reference value: 0.2 +/- 0.02 %); type: functional
[31] = tested on: Mus musculus; experiment: Antianemic effect in sickle cell disease mouse B6 model assessed as reticulocytes level at 50 mg/kg, po twice daily, five days a week for 4 weeks (reference value: 57.34 +/- 3.67 %); type: functional
[32] = Volume of distribution at steady state in Sprague-Dawley rat at 5 mg/kg, iv measured upto 24 hrs by LC-MS/MS analysis; type: ADME, organism-based; conditions: in vivo, read-out: Vdss
[33] = Induction of gamma-globin gene expression in human erythrocytes at 2 uM after 3 days by RT-PCR analysis relative to control; type: functional, Erythrocyte; conditions: time 3 day
[34] = Downregulation of c-MYB gene expression in human erythrocyte at 0.5 uM after 3 days by RT-PCR analysis relative to control; type: functional; conditions: time 3 day
[35] = Water solubility of compound at pH 7.4 after 24 hrs by LC/MS analysis; type: physicochemical; conditions: buffer, pH 7.4, 24 h
[36] = Oral bioavailability in Sprague-Dawley rat at 20 mg/kg measured upto 24 hrs by LC-MS/MS analysis; type: ADME, organism-based; conditions: in vivo
[37] = AUC (0 to infinity) in Sprague-Dawley rat at 5 mg/kg, iv measured upto 24 hrs by LC-MS/MS analysis; type: ADME, organism-based; set-up: route intravenous, dose 5 mg/kg, time <=24; conditions: in vivo
[38] = tested on: Mus musculus; experiment: Antianemic effect in sickle cell disease mouse B6 model assessed as hemoglobin level at 50 mg/kg, po twice daily, five days a week for 4 weeks (reference value: 7.46 +/- 0.7 g/dl); type: functional
[39] = tested on: Mus musculus; experiment: Antianemic effect in sickle cell disease mouse B6 model assessed as RBC level at 50 mg/kg, po twice daily, five days a week for 4 weeks (reference value: 7.23 +/- 0.75 M/uL); type: functional
[40] = tested on: Erythrocyte; experiment: Induction of gamma-globin gene expression in human erythrocytes at 0.5 to 1 uM after 3 days Western blot analysis; type: functional, cell-based; conditions: dose 0.5-1 µM, time 3.0 day
[41] = Clearance in Sprague-Dawley rat at 5 mg/kg, iv measured upto 24 hrs by LC-MS/MS analysis; type: ADME, organism-based; conditions: in vivo
[42] = Induction of CPOX gene expression in human erythrocyte at 1 uM after 3 days by RT-PCR analysis relative to control; type: functional; conditions: time 3 day
[43] = tested on: Mus musculus; experiment: Antianemic effect in sickle cell disease mouse B6 model assessed as F-cell level at 50 mg/kg, po twice daily, five days a week for 4 weeks (reference value: 1.63 +/- 0.11 %); type: functional
[44] = Half life in Sprague-Dawley rat at 5 mg/kg, iv measured upto 24 hrs by LC-MS/MS analysis; type: ADME, organism-based; conditions: in vivo
[45] = tested on: Mus musculus; experiment: Antianemic effect in sickle cell disease mouse B6 model assessed as sickle cell level at 50 mg/kg, po twice daily, five days a week for 4 weeks (reference value: 16.78 +/- 1.9 %); type: functional
[46] = tested on: Erythrocyte; experiment: Cytotoxicity against human erythrocytes assessed as cell viability at 1 uM after 3 days alamar blue assay; type: cell-based; conditions: 72 h, time 3 day
[47] = tested on: Mus musculus; experiment: Antianemic effect in sickle cell disease mouse B6 model assessed as neutrophils level at 100 mg/kg, po twice daily, five days a week for 4 weeks (reference value: 13.39 +/- 4.65 K/uL); type: functional
[48] = tested on: Mus musculus; experiment: Antianemic effect in sickle cell disease mouse B6 model assessed as reticulocytes level at 100 mg/kg, po twice daily, five days a week for 4 weeks (reference value: 57.34 +/- 3.67 %); type: functional
[49] = tested on: Mus musculus; experiment: Antianemic effect in sickle cell disease mouse B6 model assessed as WBC level at 50 mg/kg, po twice daily, five days a week for 4 weeks (reference value: 34.15 +/- 5.85 K/uL); type: functional
[50] = tested on: Mus musculus; experiment: Antianemic effect in sickle cell disease mouse B6 model assessed as neutrophils level at 50 mg/kg, po twice daily, five days a week for 4 weeks (reference value: 13.39 +/- 4.65 K/uL); type: functional
[51] = molecular target: Histone deacetylase (Homo sapiens) (UniProt Q13547+O15379+Q9UBN7+Q92769+Q9UQL6+Q8WUI4+Q9BY41+Q96DB2+P56524+Q9UKV0+Q969S8); experiment: Inhibition of HDAC in human erythrocyte cells assessed as increase in acetylation of histone H4 at 0.5 to 1 uM after 3 days by Western blot analysis; type: cell-based; conditions: dose 0.5-1 µM, time 3.0 day
[52] = tested on: Erythrocyte; experiment: Downregulation of […] expression in human erythrocyte at 1 uM after 3 days by Western blot analysis; type: functional, tissue-based; conditions: time 3.0 day
[53] = Cytotoxicity against human erythrocytes assessed as cell viability at 2 uM after 3 days alamar blue assay relative to control; type: cell-based, Erythrocyte; conditions: time 3 day, read-out: Activity
[54] = tested on: Mus musculus; experiment: Antianemic effect in sickle cell disease mouse B6 model assessed as hemoglobin level at 100 mg/kg, po twice daily, five days a week for 4 weeks (reference value: 7.46 +/- 0.7 g/dl); type: functional
[55] = Induction of gamma-globin gene expression in human HU-resistant primary erythrocytes at 0.5 uM after 3 days by RT-PCR analysis relative to control; type: functional, Erythrocyte; conditions: time 3 day
[56] = tested on: Mus musculus; experiment: Antianemic effect in sickle cell disease mouse B6 model assessed as sickle cell level at 100 mg/kg, po twice daily, five days a week for 4 weeks (reference value: 16.78 +/- 1.9 %); type: functional
[57] = Induction of GATA1 gene expression in human erythrocyte at 0.5 uM after 3 days by RT-PCR analysis relative to control; type: functional; conditions: time 3 day

Q: What does the source list for `NC(=O)NO` [HYDROXYUREA]?
A: Activity [1]: Active; Activity [2]: 0.23%; Activity [3]: 6.7 g/dL; Activity [4]: Active; Activity [5]: 14.7%; CC50 at 72 h [6]: 147 µM; Activity [7]: 23.02 K/uL; Activity [8]: 1.3%; Activity [9]: 50.92%; fold change (FC) [10]: 2.5; Activity [11]: 9.75 K/uL; Activity [12]: 6.34 M/uL

Q: Which results are given for `CCN1CCN(c2nc(Nc3cccc(NC(=O)C#Cc4ccc(C)cc4)c3)c3ncn(CC)c3n2)CC1.Cl.Cl`?
A: Activity [13]: Active; fold change (FC) [14]: 1.7; half-life [15]: 3.8 h; Activity [16]: Toxic; fold change (FC) [17]: 3.8; AUC(0-inf) [18]: 9000 ng·h/mL; Activity [19]: Dose-dependent effect; fold change (FC) [20]: 2.3; fold change (FC) [21]: 0.6; Activity [22]: 44.12 K/uL; Cmax [23]: 2730 ng/mL; Activity [24]: 8.05 M/uL; Activity [25]: 0.28%; fold change (FC) [26]: 1.8; fold change (FC) [27]: 2.3; Activity [28]: inactive; Activity [29]: 2.42%; Activity [30]: 0.3%; Activity [31]: 58.98%; Vd [32]: 0.3 L/kg; fold change (FC) [33]: 4.8; fold change (FC) [34]: 0.7; solubility [35]: 3.38 µg/mL; bioavailability [36]: 25%; AUC(0-inf) [37]: 8860 ng·h/mL; Activity [38]: 8.15 g/dL; Activity [39]: 7.78 M/uL; Activity [40]: Active; clearance [41]: 8.2 mL/min/kg; fold change (FC) [42]: 2.2; Activity [43]: 2.15%; half-life [44]: 7.2 h; Activity [45]: 10%; Activity [46]: Non-Toxic; Activity [47]: 15.64 K/uL; Activity [48]: 54.66%; Activity [49]: 35.85 K/uL; Activity [50]: 15.05 K/uL; inhibition [51]: inactive; Activity [52]: Active; viability at 72 h, 2 µM [53]: 72%; Activity [54]: 8.05 g/dL; fold change (FC) [55]: 2; Activity [56]: 8.8%; fold change (FC) [57]: 1.6
